Consider 19 compounds from patent US20250129103A1, “METHODS FOR TREATMENT OF CANCER” (Frontier Medicines Corporation, priority 2022, published 2025).

The target in data set [1] is KRAS G12C (GMPPNP-loaded) and cRAF (Ras-binding domain) interaction (Homo sapiens (Human), UniProt P01116, C118S/C51S/C80L/G12C). Nature of the data set: Inhibition of KRAS G12C and cRAF binding (AlphaScreen). Conditions: KRAS G12C loaded with GMPPNP, cRaf RBD, 2 hours preincubation; read-out: Raf-1 RBD K-Ras IC50. An outline of the steps: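 AlphaScreen readout (680 nm excitation, 570 nm emission) of RBD binding after a 60-90 min bead step at room temperature. This step follows 2 h compound exposure of GMPPNP-preloaded KRAS G12C in Hepes pH 7.4 buffer with MgCl2 and 10 μM GMPPNP.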
Chain of KRAS G12C (GMPPNP-loaded) and cRAF (Ras-binding domain) interaction (P01116 other isoform, or with tags, fused parts or gaps G12C/C51S/C80L/C118S): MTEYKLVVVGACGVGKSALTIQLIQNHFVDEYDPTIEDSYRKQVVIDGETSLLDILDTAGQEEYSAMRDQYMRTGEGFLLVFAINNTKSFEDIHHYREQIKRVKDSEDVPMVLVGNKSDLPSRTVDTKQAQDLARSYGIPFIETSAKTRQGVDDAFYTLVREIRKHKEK

For data set [2], the target named is KRAS G12C (GMPPNP-loaded) and PI3Ka (Ras-binding domain) interaction (Homo sapiens (Human), UniProt P01116, C118S/C51S/C80L/G12C). Nature of the data set: Inhibition of KRAS G12C and PI3Ka binding (AlphaScreen). Conditions: KRAS G12C loaded with GMPPNP, PI3Ka RBD, 2 hours preincubation; read-out: PI3K RBD K-Ras IC50. The protocol:
The AlphaScreen technology was used to determine IC50S for compound inhibition of KRAS G12C (present as the Cys-light (C51S, C80L and C118S), truncated version comprising amino acids 1-169) and PI3Ka interaction. Compounds were diluted in 100% DMSO and each compound concentration was spotted at 200 nl/well onto low volume, white 384 well plates. The KRAS G12C contained a biotin-AviTag and the PI3Ka, as Ras-binding domain (amino acids 157-300, RBD), was His-tagged. KRAS G12C was preloaded with the GTP analogue Guanosine 5′-[β,γ-imido]triphosphate (GMPPNP). The KRAS G12C was diluted in 25 mM Hepes, pH 7.4, 150 mM NaCl, 5 mM MgCl2, 0.01% TritonX-100 and 10 μM GMPPNP and added at 10 ul/well to compound-spotted plates resulting in a DMSO concentration of 2%. Plates were incubated for 2 hours. A mixture of RBD and the AlphaScreen streptavidin donor and nickel chelate acceptor beads diluted in 25 mM Hepes, pH 7.4, 150 mM NaCl, 5 mM MgCl2, 0.01% TritonX-100 and 2% DMSO was then added at 10 ul/well and incubated for 60-90 minutes before the samples were read for emission at 570 nm after excitation of the donor beads at 680 nm. All incubations were performed at room temperature. The final top compound concentration was 50 μM with 1:3 titrations for 10-point dose response curves. Final assay conditions were 1.5 nM KRAS G12C, 100 nM RBD, 1.25 ug/ml of AlphaScreen donor beads and 10 μg/ml AlphaLISA acceptor beads. IC50s were determined using nonlinear regression fit of [inhibitor] vs. response (4 parameters). […]

Data set [3] in a line: Determination of logD (1-octanol / phosphate buffer pH 7.4). Format: physicochemical. The note with it: 1-octanol/phosphate buffer, pH 7.4, pH 7.4, 1-octanol/phosphate buffer; read-out: Log D, pH 7.4. An outline of the steps:
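Each phase analysed by LCMS after 1 h shaking at 800 rpm and centrifugation, room temperature. Phases were mutually saturated 1-octanol and 100 mM phosphate buffer at pH 7.4. LogD derived from the phase concentrations.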

The nature of data set [4]: Determination of kinetic solubility (pH 7.4). Type of data set: physicochemical. The note with it: phosphate buffer, pH 7.4, aqueous buffer, kinetic from dmso stock, 50 mM phosphate buffer pH 7.4, read-out: Ksol, pH 7.4. Summed up:
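Solubility taken from filtrate peak areas on a calibration curve (HPLC-UV, LC-MS/MS). Before filtration and centrifugation, compound was shaken for 2 h at room temperature in pH 7.4 50 mM phosphate buffer.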

In brackets after ≈: the same amount, converted by molar mass.

Chain of KRAS G12C (GMPPNP-loaded) and PI3Ka (Ras-binding domain) interaction (P01116 other isoform, or with tags, fused parts or gaps G12C/C51S/C80L/C118S): as above

Regarding `C[C@@H]1CN(C/C=C/C(=O)N2CCN(c3nc(OC[C@@]45CCCN4C[C@H](F)C5)nc4c(F)c(-c5cccc6ccc(F)c(Cl)c56)ncc34)C[C@@H]2CC#N)C[C@@H](C)O1` [Example 74, 2-((S)-4-(7-(8-chloro-7-fluoronaphthalen-1-yl)-8-fluoro-2-(((2R,7aS)-2-fluorotetrahydro-1H-pyrrolizin-7a(5H)-yl)methoxy)pyrido[4,3-d]pyrimidin-4-yl)-1-((E)-4-((2R,6R)-2,6-dimethylmorpholino)but-2-enoyl)piperazin-2-yl)acetonitrile], the IC50 in data set [1] and in data set [2] was under 10 nM each time.

In the case of `C[C@@H]1CN(C/C=C/C(=O)N2CCN(c3nc(OC[C@@]45CCCN4C[C@H](F)C5)nc4c(F)c(-c5cccc6ccc(F)c(Cl)c56)ncc34)C[C@@H]2CC#N)C[C@H](C)O1` [Example 73, 2-((S)-4-(7-(8-chloro-7-fluoronaphthalen-1-yl)-8-fluoro-2-(((2R,7aS)-2-fluorotetrahydro-1H-pyrrolizin-7a(5H)-yl)methoxy)pyrido[4,3-d]pyrimidin-4-yl)-1-((E)-4-((2S,6R)-2,6-dimethylmorpholino)but-2-enoyl)piperazin-2-yl)acetonitrile], the IC50 in data set [1] and in data set [2] was under 10 nM in each case.

Turning to `N#CC[C@H]1CN(c2nc(OC[C@@]34CCCN3C[C@H](F)C4)nc3c(F)c(-c4cccc5cccc(Cl)c45)ncc23)CCN1C(=O)/C=C/CN1C[C@H]2C[C@@H]1CO2` [Compound 181], the IC50 in data set [1] and in data set [2] was under 10 nM throughout.

With `Cc1noc(/C=C/C(=O)N2CCN(c3nc(OC[C@@]45CCCN4C[C@H](F)C5)nc4c3CCN(c3cccc5ccc(F)c(Cl)c35)C4)C[C@@H]2CC#N)n1` [Example 3, 2-((S)-4-(7-(8-chloro-7-fluoronaphthalen-1-yl)-2-(((2R,7aS)-2-fluorotetrahydro-1H-pyrrolizin-7a(5H)-yl)methoxy)-5,6,7,8-tetrahydropyrido[3,4-d]pyrimidin-4-yl)-1-((E)-3-(3-methyl-1,2,4-oxadiazol-5-yl)acryloyl)piperazin-2-yl)acetonitrile], the IC50 is 10 to 100 nM in data set [1] and under 10 nM in data set [2].

Regarding `N#CC[C@H]1CN(c2nc(OC[C@@]34CCCN3C[C@H](F)C4)nc3c(F)c(-c4cccc5ccc(F)c(Cl)c45)ncc23)CCN1C(=O)/C=C/CN1C2COCC1C2` [Example 76, 2-((2S)-1-((E)-4-(3-oxa-6-azabicyclo[3.1.1]heptan-6-yl)but-2-enoyl)-4-(7-(8-chloro-7-fluoronaphthalen-1-yl)-8-fluoro-2-(((2R,7aS)-2-fluorotetrahydro-1H-pyrrolizin-7a(5H)-yl)methoxy)pyrido[4,3-d]pyrimidin-4-yl)piperazin-2-yl)acetonitrile], the IC50 in data set [1] and in data set [2] was under 10 nM in each case.

For the compound `CN1CC[C@@H]1/C=C/C(=O)N1CCN(c2nc(OC[C@@]34CCCN3C[C@H](F)C4)nc3c(F)c(-c4cccc(Cl)c4C(F)(F)F)ncc23)C[C@@H]1CC#N` [Compound 311], the half-maximal inhibitory concentration (IC50) in data set [1] lay within 100 to 500 nM. Further, the logD in data set [3] worked out at 2.54. For the same compound, the solubility kinetic at 2 h in data set [4] was found to be 128 µg/mL (≈ 175 µM).

For `N#CC[C@H]1CN(c2nc(OC[C@@]34CCCN3C[C@H](F)C4)nc3c(F)c(-c4cccc5cccc(Cl)c45)ncc23)CCN1C(=O)/C=C/CN1C[C@H]2CC[C@@H]1CO2` [Compound 258], the IC50 in data set [1] was under 10 nM. The logD in data set [3] came out at 2.81. In data set [4], the solubility kinetic at 2 h amounted to 169 µg/mL (≈ 219 µM).

As to `N#CC[C@H]1CN(c2nc(OC[C@@]34CCCN3C[C@H](F)C4)nc3c(F)c(-c4cccc5cccc(F)c45)ncc23)CCN1C(=O)/C=C/CN1CC2CC(C1)O2` [Compound 237], the IC50 in data set [1] was under 10 nM. In addition, the logD in data set [3] was 2.87. Besides, the solubility kinetic at 2 h in data set [4] is 67 µg/mL (≈ 90.7 µM).

`N#CC[C@H]1CN(c2nc(OC[C@@]34CCCN3C[C@H](F)C4)nc3c(F)c(-c4cccc5ccc(F)c(F)c45)ncc23)CCN1C(=O)/C=C/CN1CC2CCC(C1)O2` [Compound 249]: the 50% inhibitory concentration (IC50) in data set [1] was under 10 nM. For the same compound, the logD in data set [3] is 3.38. Also, in data set [4], the solubility kinetic at 2 h was 71.1 µg/mL (≈ 92.2 µM).

As for `C[C@H]1CN(C/C=C/C(=O)N2CCN(c3nc(OC[C@@]45CCCN4C[C@H](F)C5)nc4c(F)c(-c5cccc(Cl)c5C(F)(F)F)ncc34)C[C@@H]2CC#N)C[C@H](C)O1` [Compound 308], the IC50 in data set [1] fell in the range of 10 to 100 nM. Further, in data set [3], the logD turned out to be 3.75. In addition, the solubility kinetic at 2 h in data set [4] amounted to 80.5 µg/mL (≈ 102 µM).

As to `N#CC[C@H]1CN(c2nc(OC[C@@]34CCCN3C[C@H](F)C4)nc3c(F)c(-c4cccc5cccc(Cl)c45)ncc23)CCN1C(=O)/C=C/CN1CCS(=O)(=O)CC1` [Compound 207], in data set [1], the IC50 is 100 to 500 nM. In addition, in data set [3], the logD is 2.4. Besides, in data set [4], the solubility kinetic at 2 h was 29.9 µg/mL (≈ 37.8 µM).

`CC(C)c1noc(/C=C/C(=O)N2CCN(c3nc(OC[C@@]45CCCN4C[C@H](F)C5)nc4c(F)c(-c5ccccc5C(F)F)ncc34)C[C@@H]2CC#N)n1` [Compound 152]: the IC50 in data set [1] is over 500 nM. Besides, in data set [3], the logD was 2.62. In addition, the solubility kinetic at 2 h in data set [4] is 126 µg/mL (≈ 175 µM).

As for `N#CC[C@H]1CN(c2nc(OC[C@@]34CCCN3C[C@H](F)C4)nc3c(F)c(-c4cccc(Cl)c4C4CC4)ncc23)CCN1C(=O)/C=C/[C@H]1CCN1C1CC1` [Compound 314], in data set [1], the half-maximal inhibitory concentration (IC50) was under 10 nM. The logD in data set [3] amounted to 4.05. Also, the solubility kinetic at 2 h in data set [4] came to 32.3 µg/mL (≈ 44.2 µM).

With `CC1(c2noc(/C=C/C(=O)N3CCN(c4nc(OCC56CCCN5CCC6)nc5c(F)c(-c6cccc7cccc(Cl)c67)ncc45)C[C@@H]3CC#N)n2)CC1` [Compound 118], the IC50 in data set [1] was 100 to 500 nM. The logD in data set [3] is 3.24. Also, the solubility kinetic at 2 h in data set [4] is 4.73 µg/mL (≈ 6.32 µM).

On to `C[C@@H]1CN(C/C=C/C(=O)N2CCN(c3nc(OC[C@@]45CCCN4C[C@H](F)C5)nc4c(F)c(-c5cccc(Cl)c5C(F)(F)F)ncc34)C[C@@H]2CC#N)C[C@H](C)O1` [Compound 306], for which the IC50 in data set [1] lay within 10 to 100 nM. Further, the logD in data set [3] came to 3.5. The solubility kinetic at 2 h in data set [4] amounted to 128 µg/mL (≈ 163 µM).

`CC(C)(C)c1noc(/C=C/C(=O)N2CCN(c3nc(OC[C@@]45CCCN4C[C@H](F)C5)nc4c(F)c(-c5cccc6cccc(Cl)c56)ncc34)C[C@@H]2CC#N)n1` [Compound 34]: the 50% inhibitory concentration (IC50) in data set [1] was 100 to 500 nM. The logD in data set [3] turned out to be 5.11. Besides, the solubility kinetic at 2 h in data set [4] turned out to be 0.01 µg/mL (≈ 0.013 µM).

Regarding `N#CC[C@H]1CN(c2nc(OC[C@@]34CCCN3C[C@H](O)C4)nc3c(F)c(-c4cccc5ccc(F)c(Cl)c45)ncc23)CCN1C(=O)/C=C/CN1CCOCC1` [Compound 321], in data set [1], the IC50 is under 10 nM. Further, the logD in data set [3] worked out at 1.52. Besides, the solubility kinetic at 2 h in data set [4] stood at 162 µg/mL (≈ 214 µM).

Regarding `Cn1cnc(/C=C/C(=O)N2CCN(c3nc(OCC45CCCN4CCC5)nc4c3CCN(c3cccc5cccc(Cl)c35)C4)C[C@@H]2CC#N)n1` [Compound 21], the IC50 in data set [1] is over 500 nM. The logD in data set [3] was found to be 2.48. For the same compound, the solubility kinetic at 2 h in data set [4] stood at 89.8 µg/mL (≈ 130 µM).

For the compound `CCc1c(F)ccc2cccc(-c3ncc4c(N5CCN(C(=O)/C=C/CN6[C@@H]7CC[C@H]6COC7)[C@@H](CC#N)C5)nc(OC[C@@]56CCCN5C[C@H](F)C6)nc4c3F)c12` [Compound 99, 2-((S)-1-((E)-4-((1R,5S)-3-oxa-8-azabicyclo[3.2.1]octan-8-yl)but-2-enoyl)-4-(7-(8-ethyl-7-fluoronaphthalen-1-yl)-8-fluoro-2-(((2R,7aS)-2-fluorotetrahydro-1H-pyrrolizin-7a(5H)-yl)methoxy)pyrido[4,3-d]pyrimidin-4-yl)piperazin-2-yl)acetonitrile], the IC50 in data set [1] was under 10 nM. Besides, the logD in data set [3] was found to be 3.4. Moreover, the solubility kinetic at 2 h in data set [4] came out at 78 µg/mL (≈ 99.8 µM).
